The values below are quoted from earlier work in patent US20060270611A1, “PEDIATRIC FORMULATION OF TOPIRAMATE” (priority 2005, published 2006).

The conditions of this data set: clinical trials of human epilepsy; adjunctive therapy or monotherapy.

With `CC1(C)O[C@H]2[C@H]3OC(C)(C)O[C@]3(COS(N)(=O)=O)OC[C@H]2O1` [Topiramate, 2,3:4,5-bis-O-(1-methylethylidene) β-D-fructopyranose sulfamate], the “efficacy in treating simple and complex partial seizures and secondarily generalized seizures” value is reported as “effective as adjunctive therapy or as monotherapy”.
